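These data come from cells grown in 96-well plates and exposed to compound for 48 hours at five concentrations. The concentration for 50% growth inhibition is given as GI50.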 The source made the active and inactive calls. Rule as the data show it: active = GI50 up to about 1.1 µM and inactive = higher.
How the values were obtained:
Experiment in all cases: growth of human tumour cells (NCI), 48 h
[1] = tested on: Malme-3M
[2] = tested on: U-251
[3] = tested on: SF-268
[4] = tested on: SW-620
[5] = tested on: NCI/ADR-RES
[6] = tested on: PC-3
[7] = tested on: TK-10
[8] = tested on: EKVX
[9] = tested on: NCI-H460
[10] = tested on: UACC-62
[11] = tested on: K562
[12] = tested on: ACHN
[13] = tested on: HOP-92
[14] = tested on: RXF 393
[15] = tested on: OVCAR-5
[16] = tested on: SK-OV-3
[17] = tested on: HT-29
[18] = tested on: SF-295
[19] = tested on: SK-MEL-2
[20] = tested on: DLD-1

Measured: GI50

O=C1CC(/C=C/c2ccco2)=C(O)C1=O
inactive: [1] 11.6 µM | [2] 13.6 µM | [3] 18.6 µM | [4] 10.2 µM | [5] 24.2 µM | [6] 10.2 µM | [7] 22.5 µM | [8] 15.7 µM | [9] 17.6 µM | [10] 15.3 µM | [11] 12.1 µM | [12] 15.9 µM | [13] 13.8 µM | [14] 9.59 µM | [15] 13.9 µM | [16] 21.9 µM | [17] 11.7 µM | [18] 19.5 µM | [19] 16.4 µM

CC1(n2nc(-c3ccccc3)n(-c3ccccc3)c2=O)CSC1
inactive: [2] > 100 µM | [3] > 100 µM | [4] > 100 µM | [20] > 100 µM | [7] > 100 µM | [8] > 100 µM | [9] > 100 µM | [10] > 100 µM | [11] > 100 µM | [12] > 100 µM | [13] > 100 µM | [14] > 100 µM | [15] > 100 µM | [16] > 100 µM | [17] > 100 µM | [18] > 100 µM | [19] > 100 µM

N=C(N)NCCCC(Nc1c2ccccc2[n+]([O-])c2ccccc12)C(=O)O (stereo not given)
inactive: [1] 39.4 µM | [2] 72.3 µM | [3] 56.4 µM | [4] 59.2 µM | [20] 28.4 µM | [7] > 100 µM | [8] 96.6 µM | [9] 46 µM | [10] 42.5 µM | [11] 27 µM | [12] 23.1 µM | [15] 56.5 µM | [16] > 100 µM | [18] > 100 µM | [19] 88.3 µM

O=Cc1cn(C(=O)c2ccccc2)c2ccccc12
inactive: [1] > 100 µM | [2] > 100 µM | [4] > 100 µM | [20] > 100 µM | [7] > 100 µM | [8] > 100 µM | [9] > 100 µM | [10] > 100 µM | [11] 70 µM | [12] > 100 µM | [14] 53.5 µM | [15] > 100 µM | [16] > 100 µM | [17] 71.3 µM | [18] 38.1 µM | [19] > 100 µM

O=P(Nc1cccc(Cl)c1)(Oc1ccccc1)N(CCCl)CCCl (stereo not given)
inactive: [1] 14.9 µM | [2] 14.6 µM | [3] 15.1 µM | [4] 16.7 µM | [20] 14.4 µM | [7] 13.7 µM | [8] 17.7 µM | [10] 11.6 µM | [11] 99.3 µM | [12] 16.7 µM | [13] 11.9 µM | [15] 14.5 µM | [16] > 100 µM | [17] 14.8 µM | [18] 14.5 µM | [19] 12.6 µM

COc1ccc(C2C(Cl)C(=O)N2NC(=O)c2ccc(N)cc2)cc1 (stereo not given)
inactive: [1] > 100 µM | [2] > 100 µM | [4] > 100 µM | [20] > 100 µM | [7] > 100 µM | [8] > 100 µM | [9] > 100 µM | [10] > 100 µM | [11] > 100 µM | [12] > 100 µM | [13] > 100 µM | [15] > 100 µM | [16] > 100 µM | [17] > 100 µM | [18] > 100 µM | [19] > 100 µM

COC(=O)C(Cc1nc2ccccc2nc1O)C(=O)C(=O)Nc1ccc(F)cc1 (stereo not given)
inactive: [1] 28.8 µM | [3] 13.1 µM | [4] 21.9 µM | [20] 32.9 µM | [7] > 100 µM | [8] > 100 µM | [9] > 100 µM | [10] 24.2 µM | [12] > 100 µM | [13] 20.8 µM | [14] 23.4 µM | [16] > 100 µM | [17] 42.6 µM | [18] > 100 µM | [19] 34.4 µM

O=C(CN1CCN(c2cccc(Cl)c2)CC1)N1CCc2c([nH]c3ccccc23)C1c1cccnc1 (stereo not given)
inactive: [2] 10.2 µM | [3] 13.1 µM | [4] 7.14 µM | [20] 7.31 µM | [7] 26.2 µM | [8] 16.8 µM | [9] 4.4 µM | [10] 11.3 µM | [11] 3.03 µM | [12] 8.87 µM | [13] 12.8 µM | [14] 2.67 µM | [15] 3.96 µM | [16] > 100 µM | [17] 4 µM | [18] 8.53 µM

O=C(Nc1ccccc1)C(=O)C(C(=O)c1ccccc1F)C1OC(=O)c2ccccc21 (stereo not given)
inactive: [2] 22.9 µM | [3] 21.1 µM | [4] 41.9 µM | [20] 41.9 µM | [7] 69.2 µM | [8] 35 µM | [9] 37.7 µM | [10] 23.5 µM | [11] 44.7 µM | [12] 49.9 µM | [13] > 100 µM | [14] 35.8 µM | [15] 81.5 µM | [16] 49 µM | [17] 37.9 µM | [18] 47.1 µM | [19] 23.9 µM

CCOC(=O)CC(=O)ON(C)C(=O)Cc1ccccc1
inactive: [1] > 100 µM | [2] > 100 µM | [3] > 100 µM | [4] > 100 µM | [20] > 100 µM | [7] > 10 µM | [8] > 100 µM | [9] > 100 µM | [10] > 100 µM | [12] > 100 µM | [15] > 100 µM | [16] > 100 µM | [17] > 100 µM | [18] > 100 µM | [19] > 100 µM

Cc1cc(N(CCC#N)CCC#N)ccc1/N=N/c1cccc(C(=O)O)c1
inactive: [1] 83 µM | [2] > 100 µM | [3] > 100 µM | [4] > 100 µM | [20] > 100 µM | [7] > 100 µM | [8] > 100 µM | [10] 60.5 µM | [11] > 100 µM | [12] > 100 µM | [14] > 100 µM | [15] > 100 µM | [16] > 100 µM | [17] > 100 µM | [18] > 100 µM | [19] > 100 µM

Cc1cc(O)nc(NNC(C#N)c2cccc(O)c2)n1 (stereo not given)
inactive: [1] 79.1 µM | [2] > 100 µM | [3] > 100 µM | [4] > 100 µM | [20] > 100 µM | [7] > 100 µM | [9] > 100 µM | [10] 75.7 µM | [11] > 100 µM | [12] > 100 µM | [13] > 100 µM | [14] > 100 µM | [15] > 100 µM | [16] > 100 µM | [17] > 100 µM | [18] > 100 µM | [19] > 100 µM

From ChEMBL document CHEMBL1201862, “PubChem BioAssay data set” (2004)
